The results in this text go back to PMC7180927, “Arylaminopropanone Derivatives as Potential Cholinesterase Inhibitors: Synthesis, Docking Study and Biological Evaluation” (Molecules, 2020).

One assay deals with AChE (electric eel) (Electrophorus electricus, UniProt O42275). The assay is described as follows: biochemical. The settings on record: for inhibition at 100 µM: read-out: AChE (%) percentage of inhibition. As for the experimental part:
(§1) The in vitro testing of ChEs inhibition was performed according to the modified Ellman’s method. […] The percentage of inhibition activity was defined for all compounds.
(§2) The in vitro testing of ChEs inhibition was performed on 96-well microplate reader, Synergy^TM HT, BioTek, Vinnoski, USA.
(§3) The method originally developed by Ellman was used with slight modifications. The measurement of AChE and BuChE inhibitory activity was performed in a 96-well microplate reader. 170 μL of 0.1 M phosphate buffer (pH 7.0), 20 μL of AChE (electric eel) or BuChE (equine serum) in phosphate solution (2.3 U/mL), 20 μL of the tested compound in methanol and 20 μL of 10 mM (5,5′-dithiobis(2-nitrobenzoic acid), DTNB, Ellman’s Reagent) were mixed and incubated at 37 °C for 15 min.
Then 20 μL of 7.5 mM acetylthiocholine iodide (ATCI)/butyrylthiocholine iodide (BTCI) were added. […] Each measurement was repeated five times (n = 5). There was prepared one set of mixtures as a control (Abscontrol), which contained an equal volume of methanol instead of the tested samples.
(§4) The percentage ability to inhibit AChE and BuChE at the concentration 100 µM was tested for all compounds. The inhibitory rates IR (%) were calculated according to the Equation (1). IR = [1 - (Abssample/Abscontrol)] × 100(1)

For another assay, the target named is T1, BuChE (equine serum) (Equus caballus, UniProt P81908).
T1 construct: 20 μL of AChE (electric eel) or BuChE (equine serum) in phosphate solution (2.3 U/mL); from tissue; host or cells: equine serum
T1 sequence (P81908 whole entry): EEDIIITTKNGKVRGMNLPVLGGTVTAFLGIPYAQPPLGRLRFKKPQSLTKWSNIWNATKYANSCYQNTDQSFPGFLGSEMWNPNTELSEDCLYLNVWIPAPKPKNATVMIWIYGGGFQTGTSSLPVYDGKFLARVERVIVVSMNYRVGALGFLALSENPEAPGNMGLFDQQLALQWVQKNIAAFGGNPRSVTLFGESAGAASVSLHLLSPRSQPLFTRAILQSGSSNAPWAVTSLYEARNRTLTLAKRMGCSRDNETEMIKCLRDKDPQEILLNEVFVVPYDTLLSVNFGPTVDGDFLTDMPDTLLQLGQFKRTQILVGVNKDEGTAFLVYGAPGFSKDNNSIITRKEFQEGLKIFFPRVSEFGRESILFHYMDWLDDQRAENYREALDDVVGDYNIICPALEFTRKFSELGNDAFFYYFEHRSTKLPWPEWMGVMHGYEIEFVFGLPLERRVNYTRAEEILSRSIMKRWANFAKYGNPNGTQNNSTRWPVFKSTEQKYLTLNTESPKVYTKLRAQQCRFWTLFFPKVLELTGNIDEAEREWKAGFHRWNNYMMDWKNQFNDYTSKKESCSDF
The experiment in a line: BuChE inhibition, modified Ellman's method. The assay is classed as biochemical. The settings on record: for inhibition at 100 µM / BuChE (%) percentage of inhibition: mean ± SD (n = 5); for IC50: n = 3 per concentration. As for the experimental part: as §1, §2, §3
Then 20 μL of 7.5 mM acetylthiocholine iodide (ATCI)/butyrylthiocholine iodide (BTCI) were added. […] […] There was prepared one set of mixtures as a control (Abscontrol), which contained an equal volume of methanol instead of the tested samples.
as §4
The values were calculated by non-linear regression of the concentration-response curve using GraphPad Prism 5.0 software, according to the Equation (2):Y = Ymin + (Ymax − Ymin)/(1 + [(X^HillSlope)/(IC50^HillSlope)])(2)

The mark [1] stands for this setting: at 100 µM, read-out: BuChE (%) percentage of inhibition.
Setting [2] is: read-out: BuChE (%) percentage of inhibition, at 100 µM.

Read-outs that look alike come from different tables or passages of the source.

Chain of AChE (electric eel) (O42275 24-633): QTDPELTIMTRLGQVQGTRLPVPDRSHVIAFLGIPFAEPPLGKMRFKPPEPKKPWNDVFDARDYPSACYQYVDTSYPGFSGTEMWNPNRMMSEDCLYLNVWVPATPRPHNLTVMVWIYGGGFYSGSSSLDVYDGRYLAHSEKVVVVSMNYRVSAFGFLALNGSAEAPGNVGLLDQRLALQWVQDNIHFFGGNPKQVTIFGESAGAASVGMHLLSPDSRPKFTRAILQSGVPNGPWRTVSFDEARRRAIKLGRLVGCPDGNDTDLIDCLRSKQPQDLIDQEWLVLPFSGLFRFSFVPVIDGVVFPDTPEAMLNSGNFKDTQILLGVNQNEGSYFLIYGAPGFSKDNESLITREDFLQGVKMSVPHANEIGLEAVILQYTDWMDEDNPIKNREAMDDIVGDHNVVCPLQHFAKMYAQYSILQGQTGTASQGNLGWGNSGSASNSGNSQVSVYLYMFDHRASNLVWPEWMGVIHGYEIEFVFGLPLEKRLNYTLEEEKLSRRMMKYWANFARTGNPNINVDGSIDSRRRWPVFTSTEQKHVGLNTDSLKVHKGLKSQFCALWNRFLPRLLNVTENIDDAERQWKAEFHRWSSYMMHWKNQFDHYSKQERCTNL

Take `CCN(C)C(=O)Oc1cccc([C@H](C)N(C)C)c1` [Rivastigmine, reference compound]: the inhibition at 100 µM on AChE (electric eel) worked out at 54.8 ± 4.4%; at BuChE (equine serum) (setting [1]) it was 72.9 ± 1.5%.
Take `CCCCN(CC)CCC(=O)c1ccc(NC(=O)OC)cc1` [Compound 10, Butyl(ethyl)(3-{4-[(methoxycarbonyl)amino]phenyl}-3-oxopropyl)azanium chloride]: the IC50 at AChE (electric eel) and at BuChE (equine serum) was above 100 µM in each case. Besides, the inhibition at 100 µM was 23.6 ± 2.3% at AChE (electric eel) (at 100 µM, mean ± SD (n = 5)) and 43.6 ± 3% on BuChE (equine serum) (setting [1]).
Turning to `CCCCN(C)CCC(=O)c1ccc(NC(=O)OCC)cc1` [Compound 8, Butyl(3-{4-[(ethoxycarbonyl)amino]phenyl}-3-oxopropyl)methylazanium chloride], the half-inhibitory concentration (IC50) on AChE (electric eel) and at BuChE (equine serum) was above 100 µM throughout. In addition, the inhibition at 100 µM is 23.5 ± 2.2% at AChE (electric eel) (at 100 µM, mean ± SD (n = 5)) and 4.7 ± 3% on BuChE (equine serum) (setting [1]).
Consider `CCOC(=O)Nc1ccc(C(=O)CCN2CCOCC2)cc1` [Compound 4, 4-(3-{4-[(ethoxycarbonyl)amino]phenyl}-3-oxopropyl)morpholin-4-ium chloride], for which the IC50 on AChE (electric eel) and at BuChE (equine serum) was above 100 µM each time. Moreover, the inhibition at 100 µM at AChE (electric eel) (at 100 µM, mean ± SD (n = 5)) amounted to 16.1 ± 4.2%; on BuChE (equine serum) (setting [1]), 17.8 ± 3.4%.
In the case of `CCCCN(C)CCC(=O)c1ccc(NC(=O)OC)cc1` [Compound 7, Butyl(3-{4-[(methoxycarbonyl)amino]phenyl}-3-oxopropyl)methylazanium chloride], the IC50 at AChE (electric eel) and on BuChE (equine serum) was above 100 µM each time. In addition, the inhibition at 100 µM on AChE (electric eel) (at 100 µM, mean ± SD (n = 5)) was 38 ± 4.2%; at BuChE (equine serum) (setting [1]), 20.4 ± 5.8%.
Consider `CCCOC(=O)Nc1ccc(C(=O)CCN2CCCCC2)cc1` [Compound 3, 1-(3-oxo-3-{4-[(propoxycarbonyl)amino]phenyl}propyl)piperidin-1-ium chloride], for which the half-maximal inhibitory concentration (IC50) was 6.57 µM on AChE (electric eel) and above 100 µM at BuChE (equine serum). The inhibition at 100 µM at AChE (electric eel) (at 100 µM, mean ± SD (n = 5)) stood at 79.4 ± 0.3%; on BuChE (equine serum) (setting [1]) it was 21 ± 2.5%.
For `CCOC(=O)Nc1ccc(C(=O)CCN2CCCCC2)cc1` [Compound 2, 1-(3-{4-[(ethoxycarbonyl)amino]phenyl}-3-oxopropyl)piperidin-1-ium chloride] the same measures were 8.58 µM, above 100 µM, 77.8 ± 0.4% and 15.7 ± 1.9%.
With `CCCN(C)CCC(=O)c1ccc(NC(=O)OC)cc1` [Compound 14, (3-{4-[(methoxycarbonyl)amino]phenyl}-3-oxopropyl)(methyl)propylazanium chloride], the IC50 on AChE (electric eel) and on BuChE (equine serum) was above 100 µM throughout. In addition, the inhibition at 100 µM at AChE (electric eel) (at 100 µM, mean ± SD (n = 5)) stood at 42.2 ± 1.3%; on BuChE (equine serum) (setting [1]) it was 22.3 ± 4.6%.
Turning to `COc1ccc2c3c1O[C@H]1C[C@@H](O)C=C[C@@]31CCN(C)C2` [Galantamine, reference compound], at BuChE (equine serum) (setting [1]), the inhibition at 100 µM was 62.1 ± 1.4%.
Turning to `CCOC(=O)Nc1ccc(C(=O)CCN(CC)CC)cc1` [Compound 6, (3-{4-[(ethoxycarbonyl)amino]phenyl}-3-oxopropyl)diethylazanium chloride], the 50% inhibitory concentration (IC50) at AChE (electric eel) and on BuChE (equine serum) was above 100 µM in each case. For the same molecule, the inhibition at 100 µM is 42.2 ± 4.3% at AChE (electric eel) (at 100 µM, mean ± SD (n = 5)) and 34.2 ± 2.6% on BuChE (equine serum) (setting [1]).
`CCCN(C)CCC(=O)c1ccc(NC(=O)OCC)cc1` [Compound 15, (3-{4-[(ethoxycarbonyl)amino]phenyl}-3-oxopropyl)(methyl)propylazanium chloride]: the IC50 on AChE (electric eel) and at BuChE (equine serum) was above 100 µM in each case. In addition, the inhibition at 100 µM on AChE (electric eel) (at 100 µM, mean ± SD (n = 5)) is 45.3 ± 3.4%; on BuChE (equine serum) (setting [1]) it was 36.8 ± 2.1%.
Regarding `CCCOC(=O)Nc1ccc(C(=O)CCN2CCOCC2)cc1` [Compound 5, 4-(3-oxo-3-{4-[(propoxycarbonyl)amino]phenyl}propyl)morpholin-4-ium chloride], the IC50 on AChE (electric eel) and on BuChE (equine serum) was above 100 µM each time. Moreover, the inhibition at 100 µM at AChE (electric eel) (at 100 µM, mean ± SD (n = 5)) turned out to be 25.9 ± 3.2%; on BuChE (equine serum) (setting [1]), 14.4 ± 2.4%.
Take `CCCCN(CC)CCC(=O)c1ccc(NC(=O)OCC)cc1.Cl` [Compound 11, Butyl(3-{4-[(ethoxycarbonyl)amino]phenyl}-3-oxopropyl)ethylazanium chloride]: the inhibition at 100 µM was 24.6 ± 1.9% on AChE (electric eel) (at 100 µM, mean ± SD (n = 5)) and above 50% at BuChE (equine serum) (setting [2]). Besides, on BuChE (equine serum) (at 100 µM), the “BuChE (%) percentage of inhibition” value is recorded as 51.0 ± 2.9%.
Turning to `CCCCCN(C)CCC(=O)c1ccc(NC(=O)OCC)cc1.Cl` [Compound 16, (3-{4-[(ethoxycarbonyl)amino]phenyl}-3-oxopropyl)(methyl)pentylazanium chloride], the concentration for half-maximal inhibition (IC50) at AChE (electric eel) and on BuChE (equine serum) was above 100 µM in each case. In addition, the “AChE (%) percentage of inhibition” value at AChE (electric eel) (at 100 µM, mean ± SD (n = 5)) is 50.6 ± 1.8%. For the same molecule, the inhibition at 100 µM was above 50% on AChE (electric eel) (at 100 µM, mean ± SD (n = 5)) and 46.3 ± 2% at BuChE (equine serum) (setting [1]).
For the molecule `CCCCOC(=O)Nc1ccc(C(=O)CCN(CC)CCCC)cc1` [Compound 13, (3-{4-[(butoxycarbonyl)amino]phenyl}-3-oxopropyl)(butyl)ethylazanium chloride], the IC50 at AChE (electric eel) and at BuChE (equine serum) was above 100 µM in each case. Besides, the inhibition at 100 µM was 33.5 ± 3.4% at AChE (electric eel) (at 100 µM, mean ± SD (n = 5)) and 48.7 ± 2.6% at BuChE (equine serum) (setting [1]).
Take `COC(=O)Nc1ccc(C(=O)CCN2CCCCC2)cc1` [Compound 1, 1-(3-{4-[(methoxycarbonyl)amino]phenyl}-3-oxopropyl)piperidin-1-ium chloride]: the IC50 on AChE (electric eel) is 12.7 µM; on BuChE (equine serum) it was above 100 µM. In addition, the inhibition at 100 µM at AChE (electric eel) (at 100 µM, mean ± SD (n = 5)) came out at 74.1 ± 0.9%; at BuChE (equine serum) (setting [1]) it was 10 ± 0.8%.
In the same order, the values of `CCCCN(C)CCC(=O)c1ccc(NC(=O)OCCC)cc1` [Compound 9, Butyl(methyl)(3-oxo-3-{4-[(propoxycarbonyl)amino]phenyl}propyl)azanium chloride] are above 100 µM, above 100 µM, 44.5 ± 1.1% and 29 ± 2.9%.
`CCCCN(CC)CCC(=O)c1ccc(NC(=O)OCCC)cc1.Cl` [Compound 12, Butyl(ethyl)(3-{4-[(propoxycarbonyl)amino]phenyl}-3-oxopropyl)azanium chloride]: the IC50 at AChE (electric eel) and at BuChE (equine serum) was above 100 µM in each case. In addition, the inhibition at 100 µM on AChE (electric eel) (at 100 µM, mean ± SD (n = 5)) was 38.4 ± 1.3%; at BuChE (equine serum) (setting [2]), above 50%. Further, the “BuChE (%) percentage of inhibition” value on BuChE (equine serum) (at 100 µM) is listed as 51.1 ± 3.3%.
